In paper PMC10600239, “Selective MCL-1 inhibitor ABBV-467 is efficacious in tumor models but is associated with cardiac troponin increases in patients” (Communications Medicine, 2023):

Tested on: OPM-2 xenografts
Test: OPM-2 xenograft efficacy (tumor volume, body weight)
Format: in vivo, mouse
Conditions: 6.25 mg/kg IV once weekly for 3 weeks
Procedure: All animal studies were conducted in accordance with the guidelines approved by the Institutional Animal Care and Use Committees of AbbVie. The research protocol was approved by In Vivo Pharmacology at AbbVie prior to study initiation but was not publicly registered or disclosed. Female C.B-17 SCID-beige mice (AMO-1, OPM-2, NCI-H929, and OCI-AML2 xenografts) and female NSG mice (MV4-11-Red.Fluc systemic) were purchased from Charles River Laboratories (Wilmington, MA). Animals were housed in a light cycle-controlled room with HEPA filtration at 22 °C. Animals had nesting and climbing cage topper as the primary environmental enrichment. Animals were inoculated subcutaneously in the right flank with 5 × 10^6 (AMO-1, OPM-2, NCI-H929, and OCI-AML2) or intravenous (IV) with 5 × 10^6 (MV4-11-Red.Fluc). The inoculation volume (0.2 mL) comprised a 50:50 mixture of cells in growth media and Matrigel (BD Biosciences) for subcutaneous injections and 100% phosphate-buffered saline for IV administration. All cell lines used in this publication were authenticated using IDEXX for STR profiling as well as their IMPACT and human IMPACT panels for pathogen screening. Electronic calipers were used to measure the length and width of each tumor 2 to 3 times per week. Tumor volume was estimated by applying the following equation: volume = length × width^2/2. All groups remained blinded during measurements and dosing; only veterinary staff were aware of group identity. When tumors reached approximately 200 mm^3, mice were randomized by match and distributed into treatment and control groups. All xenograft trials were conducted using 5 to 10 mice per group, and all mice were ear tagged and monitored individually throughout the studies. Any animal with a tumor above 2000 mm^3 or 15% loss in body weight was euthanized and removed from the study. Tumor burden in the systemic MV4-11-Red.Fluc experiment was measured using an IVIS® spectrum from PerkinElmer by taking the total photon flux of the entire dorsal side of an individual mouse. Ten minutes prior to imaging, animals received intraperitoneally 0.2 mL of a 15-mg/mL solution of D-Luciferin (PerkinElmer, Catalog #122799) formulated in 100% phosphate-buffered saline. Animals were anesthetized using 3.5% isoflurane and maintained using 2%. Six days after inoculation, animals were imaged and randomized into vehicle and treatment groups at a total flux of ~1 × 10^8. A background control mouse that was tumor naive but received D-Luciferin was placed in the upper left corner of each image. The total flux from this animal was subtracted from the total flux of each animal present in the image.
For in vivo studies, maximal tumor growth inhibition (TGI) was calculated as the greatest treatment response using the following equation: Maximal TGI = (1 − mean tumor volume of the treated group/mean tumor volume of the vehicle control group) × 100. The tumor growth delay (TGD) percentage was determined as the percentage increase of the median time period for the treatment group to reach an arbitrary tumor volume of 1000 mm^3 relative to the vehicle control group. […] A power analysis was conducted using historical data to determine the number of animals required to yield significance of 0.05 at a 30% difference. There were no animals excluded. Data from experiments in vivo were analyzed using the student’s t-test for TGI values and the Mann–Whitney U test for TGD using Excel and GraphPad Prism. Fisher’s exact test was used to probe significance of differences in response frequency.

Cc1c(Cl)c2c(Cl)c(C)c1-c1c(-c3ccc(F)cc3)sc3ncnc(c13)O[C@@H](C(=O)O)Cc1cc(ccc1OCc1ccnc(-c3ccc(OC[C@H]4COCCO4)cc3)n1)OC[C@@H](CN1CCN(C)CC1)O2 [ABBV-467]
maximal TGD: 82%
